Experimental data: ChEMBL document CHEMBL4425159, “Design, synthesis and antimalarial evaluation of novel thiazole derivatives” (Bioorg Med Chem Lett, 2016)
pIC50: −log10 of the molar value.

What was measured:
Plasmodium falciparum = test: Antimalarial activity against chloroquine sensitive-Plasmodium falciparum 3D7 assessed as growth inhibition preincubated for 24 hrs followed by [3H]-hypoxanthine incorporation measured after 24 hrs by scintillation counting; type: functional, organism-based
HepG2 = test: Cytotoxicity against human HepG2 cells assessed as cell growth inhibition; type: cell-based
[1] = Lipophilicity, log D of the compound by chromatographic method; type: physicochemical

Compound `CC(C)c1sc(N(C)CCO)nc1C(=O)Nc1ccc(F)cc1C(F)(F)F` has a pIC50 (Plasmodium falciparum) of 5.49.

`CC(C)c1sc(N2CCN(C)CC2)nc1C(=O)Nc1ccccc1C(F)(F)F` gave a pIC50 (HepG2) of 4.30 and a pIC50 (Plasmodium falciparum) of 7.51.

`CC(C)c1sc(N2CCN(C)CC2)nc1C(=O)Nc1cc(F)cc(F)c1` gave a pIC50 (Plasmodium falciparum) of less than 5.30.

In the case of `CC(C)c1sc(N2CCN(C)CC2)nc1C(=O)Nc1c(Cl)cc(F)cc1Cl`, the pIC50 (Plasmodium falciparum) was less than 5.30.

For `Cc1ccc(NC(=O)c2nc(N3CCN(C)CC3)sc2C(C)C)c(Cl)c1`, the pIC50 (Plasmodium falciparum) was 5.49.

`CC(C)c1sc(N2CCN(C)CC2)nc1C(=O)Nc1cnccc1Cl` gave a pIC50 (Plasmodium falciparum) of 5.77.

For `CC(C)c1sc(N2CCN(C)CC2)nc1C(=O)Nc1ccccc1OC(F)(F)F`, the pIC50 (HepG2) was less than 4.00 and the pIC50 (Plasmodium falciparum) was 7.47.

`CC(C)c1sc(N2CCN(C)CC2)nc1C(=O)Nc1ccc(F)cc1` showed a pIC50 (Plasmodium falciparum) of less than 5.30.

Compound `COc1ccccc1NC(=O)c1nc(N2CCN(C)CC2)sc1C(C)C` has a pIC50 (Plasmodium falciparum) of 6.46.

`CC(C)c1sc(N2CCOCC2)nc1C(=O)Nc1ccc(F)cc1C(F)(F)F` gave a pIC50 (Plasmodium falciparum) of 6.99.

In the case of `CC(C)c1sc(N2CCN(C)CC2)nc1C(=O)Nc1ccccc1S(N)(=O)=O`, the pIC50 (Plasmodium falciparum) was less than 5.30.

Work on `Cc1cc(F)ccc1NC(=O)c1nc(N2CCN(C)CC2)sc1C(C)C` yielded a pIC50 (Plasmodium falciparum) of 6.14.

For `CC(C)c1sc(N2CCN(C)CC2)nc1C(=O)Nc1c(F)cccc1F`, the pIC50 (Plasmodium falciparum) was less than 5.30.

`CC(C)c1sc(N2CCN(C)CC2)nc1C(=O)Nc1ccccc1CO` gave a pIC50 (Plasmodium falciparum) of less than 5.30.

`CC(C)c1sc(N2CCN(C)CC2)nc1C(=O)Nc1ccc(C(F)(F)F)cc1Cl` gave a pIC50 (Plasmodium falciparum) of less than 5.30.

For `CC(C)c1sc(N2CCN(C)CC2)nc1C(=O)Nc1ccccc1C#N`, the pIC50 (HepG2) was 4.49 and the pIC50 (Plasmodium falciparum) was 7.01.

Work on `CC(C)c1sc(N2CCN(C)CC2)nc1C(=O)Nc1ccccc1Cl` yielded a pIC50 (HepG2) of less than 4.00 and a pIC50 (Plasmodium falciparum) of 7.24.

In the case of `CC(C)c1sc(N(C)CCN(C)C)nc1C(=O)Nc1ccc(F)cc1C(F)(F)F`, the pIC50 (Plasmodium falciparum) was 5.50.

For `CC(C)c1sc(N2CCN(C)CC2)nc1C(=O)Nc1ccccc1C(N)=O`, the pIC50 (Plasmodium falciparum) was less than 5.30.

`CC(C)c1sc(N2CCN(C)CC2)nc1C(=O)Nc1ccc(F)cc1Cl` gave a pIC50 (HepG2) of less than 4.00 and a pIC50 (Plasmodium falciparum) of 7.24.

`CC(C)c1sc(N2CCN(C)CC2)nc1C(=O)Nc1ccc(F)cc1F` showed a pIC50 (Plasmodium falciparum) of 5.92.

In the case of `COCCN(C)c1nc(C(=O)Nc2ccc(F)cc2C(F)(F)F)c(C(C)C)s1`, the pIC50 (Plasmodium falciparum) was 6.23.

With `CC(C)c1sc(N2CCN(C)CC2)nc1C(=O)Nc1cccnc1Cl` the chromatographic logD [1] was 7.8, the pIC50 (HepG2) was less than 4.00 and the pIC50 (Plasmodium falciparum) was 7.10.

`CC(C)c1sc(N2CCN(C)CC2)nc1C(=O)Nc1ccccc1F` showed a pIC50 (Plasmodium falciparum) of 6.59.

For `CC(C)c1sc(N2CCN(C)CC2)nc1C(=O)Nc1cccc(Cl)n1`, the pIC50 (Plasmodium falciparum) was 6.46.

`CC(C)c1sc(N2CCN(C)CC2)nc1C(=O)Nc1c(Cl)cc(C(F)(F)F)cc1Cl` showed a pIC50 (Plasmodium falciparum) of less than 5.30.

For `CC(C)c1sc(N2CCN(C)CC2)nc1C(=O)Nc1cccnc1`, the pIC50 (Plasmodium falciparum) was less than 5.30.

`CC(C)c1sc(N2CCN(C)CC2)nc1C(=O)Nc1ncccc1Cl` gave a pIC50 (Plasmodium falciparum) of less than 5.30.

Compound `CC(C)c1sc(N2CCN(C)CC2)nc1C(=O)Nc1ccc(F)cc1C(F)(F)F` has a logD [1] of 9.06, a pIC50 (HepG2) of 4.11 and a pIC50 (Plasmodium falciparum) of 7.62.
